Changes are numbered by the printed parent chain. Non-standard residues stand in square brackets, D forms with d. Residues, ends and D or L forms follow the SMILES beside them. No end group written: not given here. *: point of attachment. pGlu = O=C1CC[C@@H](C(=O)O)N1; Nle = CCCC[C@H](N)C(=O)O; βAla = NCCC(=O)O; NHPr = CCCN*
target: T1, BRS3 (Homo sapiens, UniProt P32247); test: not given; conditions: background statement, in words; cited from earlier work
T1 sequence (P32247 1-399): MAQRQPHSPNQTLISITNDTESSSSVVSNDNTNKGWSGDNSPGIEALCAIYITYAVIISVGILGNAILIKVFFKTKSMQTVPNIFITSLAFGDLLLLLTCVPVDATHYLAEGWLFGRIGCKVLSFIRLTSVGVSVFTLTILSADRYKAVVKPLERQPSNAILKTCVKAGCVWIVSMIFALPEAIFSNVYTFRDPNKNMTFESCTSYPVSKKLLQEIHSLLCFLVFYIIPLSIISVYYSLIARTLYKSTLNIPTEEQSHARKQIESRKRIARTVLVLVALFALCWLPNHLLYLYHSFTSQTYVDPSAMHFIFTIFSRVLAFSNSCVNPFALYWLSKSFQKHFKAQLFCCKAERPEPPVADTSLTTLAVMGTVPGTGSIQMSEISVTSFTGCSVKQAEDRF

Row | Molecule | affinity at BRS3
1 | CSCC[C@H](NC(=O)[C@H](CC(C)C)NC(=O)[C@H](Cc1c[nH]cn1)NC(=O)CNC(=O)[C@@H](NC(=O)[C@H](C)NC(=O)[C@H](Cc1c[nH]c2ccccc12)NC(=O)[C@H](Cc1c[nH]cn1)NC(=O)[C@H](CC(N)=O)NC(=O)CNC(=O)[C@H](CCCNC(=N)N)NC(=O)[C@@H]1CCCN1C(=O)[C@H](Cc1ccc(O)cc1)NC(=O)[C@H](CCSC)NC(=O)[C@H](CCCCN)NC(=O)[C@@H](NC(=O)[C@H](CC(C)C)NC(=O)[C@@H](NC(=O)[C@@H](NC(=O)CNC(=O)CNC(=O)CNC(=O)[C@H](C)NC(=O)[C@@H]1CCCN1C(=O)[C@H](CC(C)C)NC(=O)[C@@H]1CCCN1C(=O)[C@@H](N)C(C)C)[C@@H](C)O)C(C)C)[C@@H](C)O)C(C)C)C(N)=O [GRP, gastrin-releasing peptide] | very low (high μM) affinity
2 | neuromedin B [NMB] | very low (high μM) affinity

target: T2, endogenous human BRS-3 in NCI-N417 cells (Homo sapiens, UniProt P32247); test: Agonist pharmacology, FLIPR intracellular calcium (Fluo-3AM) in NCI-N417 cells; format: cell-based; conditions: not given
T2 construct: Agonist Pharmacology at the Endogenous Human BRS-3 in NCI-N417 Cells; endogenous in cells; host or cells: NCI-N417 cells
T2 sequence (P32247 1-399): T1 sequence (P32247 1-399)
Description: Agonist Pharmacology at the Endogenous Human BRS-3 in NCI-N417 Cells
NCI-N417 cells were seeded into Costar 96 well black walled plates (30,000 cells per well), cultured overnight in RPMI 1640 medium containing 10% foetal calf serum and 1% L-glutamine, and then loaded with the cytoplasmic calcium indicator Fluo-3AM (4 μM) in the presence of 2.5 mM probenecid at 37° C. for 60 min. The cells were then washed 4× with, and finally resuspended in, Tyrode's medium containing 2.5 mM probenecid. Fluorescence was then monitored using a FLIPR (λEX=488 nm, λEM=540 nm) before and after the addition of various ligands (10 pM-10 μM), as described previously (Smart et al (1999). Br. J. Pharmacol. 128:1-4).

Row | Molecule | EC50 [nM]
3 | CCCC[C@H](NC(=O)[C@H](Cc1ccccc1)NC(=O)[C@H](Cc1c[nH]cn1)NC(=O)CNC(=O)[C@@H](NC(=O)[C@H](C)NC(=O)[C@H](Cc1c[nH]c2ccccc12)NC(=O)[C@H](CCC(N)=O)NC(=O)[C@H](N)Cc1ccccc1)C(C)C)C(N)=O [[D-Phe^1, Nle^9]litorin] | 1100
4 | CCCNC(=O)[C@H](Cc1ccccc1)NC(=O)[C@H](Cc1c[nH]cn1)NC(=O)CNC(=O)[C@@H](NC(=O)[C@H](C)NC(=O)[C@H](Cc1c[nH]c2ccccc12)NC(=O)[C@H](CCC(N)=O)NC(=O)[C@H](N)Cc1ccccc1)C(C)C [[D-Phe^6, Phe^13]BN(6-13) propylamide] (H-[dF]QWAVGHF-NHPr; N-terminus assumed) | 148
5 | CCCNC(=O)[C@H](CC(C)C)NC(=O)[C@H](Cc1c[nH]cn1)NC(=O)CNC(=O)[C@@H](NC(=O)[C@H](C)NC(=O)[C@H](Cc1c[nH]c2ccccc12)NC(=O)[C@H](CCC(N)=O)NC(=O)[C@H](N)Cc1ccccc1)C(C)C [[D-Phe^6]BN(6-13) propylaniide] | 1380

same assay, conditions: calcium mobilisation, FLIPR, NCI-N417 cells, ligands 10 pM-10 μM; read-out: pEG50 (the source's name) (converted)

Row | Molecule | EC50 [nM]
6 | CCCC[C@H](NC(=O)[C@H](Cc1ccccc1)NC(=O)[C@H](Cc1cnc[nH]1)NC(=O)CCNC(=O)[C@@H](NC(=O)[C@H](C)NC(=O)[C@H](Cc1c[nH]c2ccccc12)NC(=O)[C@H](CCC(N)=O)NC(=O)[C@H](N)Cc1ccc(O)cc1)C(C)C)C(N)=O [[D-Tyr^6, βAla^11, Phe^13, Nle^14]Bombesin(6-14)] (H-[dY]QWAV[βAla]HF[Nle]-NH2) | 9.55

same assay, conditions: calcium mobilisation, FLIPR, NCI-N417 cells; at 10 μM

Row | Molecule | Efficacy [% at 10 μM]
7 | CSCC[C@H](NC(=O)[C@H](CC(C)C)NC(=O)[C@H](Cc1cnc[nH]1)NC(=O)CNC(=O)[C@@H](NC(=O)[C@H](C)NC(=O)[C@H](Cc1c[nH]c2ccccc12)NC(=O)[C@H](CCC(N)=O)NC(=O)[C@H](CC(N)=O)NC(=O)CNC(=O)[C@H](CC(C)C)NC(=O)[C@H](CCCN=C(N)N)NC(=O)[C@H](CCC(N)=O)NC(=O)[C@@H]1CCC(=O)N1)C(C)C)C(N)=O [Bombesin] | 23

same assay, conditions: calcium mobilisation, FLIPR, NCI-N417 cells; efficacy in words

Row | Molecule | Efficacy
8 | CSCC[C@H](NC(=O)[C@H](Cc1ccccc1)NC(=O)[C@H](Cc1c[nH]cn1)NC(=O)CNC(=O)[C@@H](NC(=O)[C@H](C)NC(=O)[C@H](Cc1c[nH]c2ccccc12)NC(=O)[C@H](CCC(N)=O)NC(=O)[C@@H]1CCCN1C(=O)CNC(=O)CNC(=O)CNC(=O)[C@@H]1CCC(=O)N1)C(C)C)C(N)=O [PG-L] ([pGlu]GGGPQWAVGHFM-NH2; C-terminus assumed) | full
9 | CSCC[C@H](NC(=O)[C@H](Cc1ccccc1)NC(=O)[C@H](Cc1c[nH]cn1)NC(=O)CNC(=O)[C@@H](NC(=O)[C@H](C)NC(=O)[C@H](Cc1c[nH]c2ccccc12)NC(=O)[C@H](CCC(N)=O)NC(=O)[C@@H]1CCCN1C(=O)[C@@H](NC(=O)[C@@H]1CCC(=O)N1)C(C)C)C(C)C)C(N)=O [Ranantensin] ([pGlu]VPQWAVGHFM-NH2; C-terminus assumed) | full
10 | CCCC[C@H](NC(=O)[C@H](Cc1ccccc1)NC(=O)[C@H](Cc1c[nH]cn1)NC(=O)CNC(=O)[C@@H](NC(=O)[C@H](C)NC(=O)[C@H](Cc1c[nH]c2ccccc12)NC(=O)[C@H](CCC(N)=O)NC(=O)[C@H](N)Cc1ccccc1)C(C)C)C(N)=O [[D-Phe^1, Nle^9]litorin] | full
11 | CCCNC(=O)[C@H](Cc1ccccc1)NC(=O)[C@H](Cc1c[nH]cn1)NC(=O)CNC(=O)[C@@H](NC(=O)[C@H](C)NC(=O)[C@H](Cc1c[nH]c2ccccc12)NC(=O)[C@H](CCC(N)=O)NC(=O)[C@H](N)Cc1ccccc1)C(C)C [[D-Phe^6, Phe^13]BN(6-13) propylamide] (H-[dF]QWAVGHF-NHPr; N-terminus assumed) | full
12 | CCCNC(=O)[C@H](CC(C)C)NC(=O)[C@H](Cc1c[nH]cn1)NC(=O)CNC(=O)[C@@H](NC(=O)[C@H](C)NC(=O)[C@H](Cc1c[nH]c2ccccc12)NC(=O)[C@H](CCC(N)=O)NC(=O)[C@H](N)Cc1ccccc1)C(C)C [[D-Phe^6]BN(6-13) propylaniide] | full
13 | CCCC[C@H](NC(=O)[C@H](Cc1ccccc1)NC(=O)[C@H](Cc1c[nH]cn1)NC(=O)CCNC(=O)[C@@H](NC(=O)[C@H](C)NC(=O)[C@H](Cc1c[nH]c2ccccc12)NC(=O)[C@H](CCC(N)=O)NC(=O)[C@H](N)Cc1ccc(O)cc1)C(C)C)C(N)=O [[D-Tyr^6, βAla^11, Phe^13, Nle^14]Bombesin(6-14)] (H-[dY]QWAV[βAla]HF[Nle]-NH2) | full
14 | AcNMB(3-10) | full
15 | neuromedin B [NMB] | full

target: T3, human bombesin receptor 3 (BRS3), endogenous in NCI-N417 cells (human) (UniProt P32247); test: cell-based or functional assay; conditions: not given
T3 sequence: T1 sequence (P32247 1-399) with T139A

Row | Molecule | Efficacy; intracellular calcium (FLIPR) in NCI-N417 cells [%] | pEG50 [sic, pEC50]; intracellular calcium (Fluo-3AM fluorescence, FLIPR) in NCI-N417 cells
16 | Bombesin (peptide) | 23 | < 5 -log10(M)
17 | PG-L (peptide) | – | 5.54 -log10(M)
18 | Ranantensin (peptide) | – | 5.59 -log10(M)
19 | [D-Phe^1, Nle^9]litorin (peptide) | – | 5.96 -log10(M)
20 | [D-Phe^6, Phe^13]BN(6-13) propylamide (peptide) | – | 6.83 -log10(M)
21 | [D-Phe^6, βAla^11, Phe^13, Nle^14]Bombesin(6-14) (peptide) | – | 7.88 -log10(M)
22 | [D-Phe^6]BN(6-13) propylamide (peptide) | – | 5.86 -log10(M)
23 | [D-Tyr^6, βAla^11, Phe^13, Nle^14]Bombesin(6-14) (peptide) | – | 8.02 -log10(M)
24 | neuromedin C (NMC) (peptide) | 20 | –
25 | VPLPAGGGTVLTKMYPRGNHWAVGHLM (peptide, UniProt P07492 24-50, looked up, species assumed, ends and bridges not checked) [gastrin-releasing peptide (GRP)] | 23 | < 5 -log10(M)
26 | Ac-LWATGHFM (peptide, UniProt P08949 49-56, looked up, species assumed, ends and bridges not checked) [AcNMB(3-10)] | – | 5.73 -log10(M)
27 | GNLWATGHFM (peptide, UniProt P08949 47-56, looked up, species assumed, ends and bridges not checked) [neuromedin B (NMB)] | – | 5.65 -log10(M)
